# Patent publication US7759345B2, “Antitumoral derivatives of ET-743” (priority 2001, dated 2010)
# Assays:
# [1] = test system: LNCaP; assay: Inhibition of cells growth by colorimetric assay (SRB), LNCaP; assay type: cell-based; details: SRB, 48 hours exposure
# Experimental: (§1) 2°.—Inhibition of Cells Growth by Colorimetric Assay.
# (§2) A colorimetric type of assay, using sulforhodamine B (SRB) reaction has been adapted for a quantitative measurement of cell growth and viability [following the technique described by Philip Skehan, et al. (1990), New colorimetric cytotoxicity assay for anticancer drug screening, J. Natl. Cancer Inst., 82:1107-1112]
# (§3) This form of the assay employs 96 well cell culture microplates of 9 mm diameter (Faircloth, 1988; Mosmann, 1983). Most of the cell lines are obtained from American Type Culture Collection (ATCC) derived from different human cancer types.
# (§4) Cells are maintained in RPMI 1640 10% FBS, supplemented with 0.1 g/l penicillin and 0.1 g/l streptomycin sulfate and then incubated at 37° C., 5% CO2 and 98% humidity. For the experiments, cells were harvested from subconfluent cultures using trypsin and resuspended in fresh medium before plating.
# (§5) Cells are seeded in 96 well microtiter plates, at 5×10^3 cells per well in aliquots of 195 μl medium, and they are allowed to attach to the plate surface by growing in drug free medium for 18 hours. Afterward, samples are added in aliquots of 5 μl in a ranging from 10 to 10^−8 μg/ml, dissolved in DMSO/EtOH/PBS (0.5:0.5:99). After 48 hours exposure, the antitumor effect are measured by the SRB methodology: cells are fixed by adding 50 μl of cold 50% (wt/vol) trichloroacetic acid (TCA) and incubating for 60 minutes at 4° C. Plates are washed with deionized water and dried. One hundred μl of SRB solution (0.4% wt/vol in 1% acetic acid) is added to each microtiter well and incubated for 10 minutes at room temperature. Unbound SRB is removed by washing with 1% acetic acid. Plates are air dried and bound stain is solubilized with Tris buffer. Optical densities are read on a automated spectrophotometric plate reader at a single wavelength of 490 nm.
# (§6) The values for mean+/−SD of data from triplicate wells are calculated. Some parameters for cellular responses can be calculated: GI=growth inhibition, TGI=total growth inhibition (cytostatic effect) and LC=cell killing (cytotoxic effect).
# (§7) Obtained results may predict the usefulness of a certain drug as a potential cancer treatment. For this technique, compounds which show GI50 values smaller than 10 μg/ml are selected to continue with further studies. GI50's data allow to predict that not only could a drug be cystostatic, but also it could have a potential in terms of tumor reduction.
# [2] = test system: LoVo-Dox; assay: Inhibition of cells growth by colorimetric assay (SRB), LoVo-Dox; assay type: cell-based; details: SRB, 48 hours exposure
# Experimental: as §1, §2, §3, §4, §5, §6, §7
# [3] = test system: SK-OV-3; assay: Inhibition of cells growth by colorimetric assay (SRB), SK-OV-3; assay type: cell-based; details: SRB, 48 hours exposure
# Experimental: as §1, §2, §3, §4, §5, §6, §7
# [4] = test system: LoVo; assay: Inhibition of cells growth by colorimetric assay (SRB), LoVo; assay type: cell-based; details: SRB, 48 hours exposure
# Experimental: as §1, §2, §3, §4, §5, §6, §7
# [5] = test system: A-549; assay: Inhibition of cells growth by colorimetric assay (SRB), A-549; assay type: cell-based; details: SRB, 48 hours exposure
# Outline: (§8)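 Compound in DMSO/EtOH/PBS vehicle was applied at 10 to 10^−8 μg/ml to attached cells (5×10^3/well, 18 h) for 48 h. Cells were then fixed with cold TCA and stained with 0.4% SRB in 1% acetic acid.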
# [6] = test system: IGROV-1; assay: Inhibition of cells growth by colorimetric assay (SRB), IGROV-1; assay type: cell-based; details: SRB, 48 hours exposure
# Experimental: as §1, §2, §3, §4, §5, §6, §7
# [7] = test system: HT-29; assay: Inhibition of cells growth by colorimetric assay (SRB), HT-29; assay type: cell-based; details: SRB, 48 hours exposure
# Outline: as §8
# [8] = test system: K-562; assay: Inhibition of cells growth by colorimetric assay (SRB), K-562; assay type: cell-based; details: SRB, 48 hours exposure
# Experimental: as §1, §2, §3, §4, §5, §6, §7
# [9] = test system: PANC-1; assay: Inhibition of cells growth by colorimetric assay (SRB), PANC-1; assay type: cell-based; details: SRB, 48 hours exposure
# Experimental: as §1, §2, §3, §4, §5, §6, §7
# [10] = test system: SK-MEL-28; assay: Inhibition of cells growth by colorimetric assay (SRB), SK-MEL-28; assay type: cell-based; details: SRB, 48 hours exposure
# Experimental: as §1, §2, §3, §4, §5, §6, §7
# [11] = test system: DU-145; assay: Inhibition of cells growth by colorimetric assay (SRB), DU-145; assay type: cell-based; details: SRB, 48 hours exposure
# Experimental: as §1, §2, §3, §4, §5, §6, §7
# [12] = test system: IGROV-ET; assay: Inhibition of cells growth by colorimetric assay (SRB), IGROV-ET; assay type: cell-based; details: SRB, 48 hours exposure
# Experimental: as §1, §2, §3, §4, §5, §6, §7
# [13] = test system: MEL-28; assay: Inhibition of cell growth by counting cells, MEL-28; assay type: cell-based, human; details: Homo sapiens, SK-MEL-28, 72 h; three days of incubation; read-out: IC50 (molar) MEL-28
# Outline: (§9)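 Cells were seeded at 1×10^4 per well in EMEM with 5% FCS containing test sample and incubated 3 days at 37 °C, 5% CO2, in duplicate. Cells were then trypsinized and Coulter-counted, and growth was expressed relative to drug-free controls. IC50 (50% growth inhibition) was taken from dose-response curves.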
# [14] = test system: P-388; assay: Inhibition of cell growth by counting cells, P-388; assay type: cell-based, mouse; details: Mus musculus, P388, 72 h; three days of incubation; read-out: IC50 (molar) P-388
# Outline: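 Mouse P-388 lymphoid neoplasm suspension cells seeded at 1×10^4 cells/well in EMEM 5% FCS containing graded sample concentrations, in duplicate alongside drug-free growth controls. Cells counted by Coulter counter; % growth vs untreated gives dose-response curves, IC50 = concentration producing 50% growth inhibition.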
# [15] = test system: HT-29; assay: Inhibition of cell growth by counting cells, HT-29; assay type: cell-based, human; details: Homo sapiens, HT-29, 72 h; three days of incubation; read-out: IC50 (molar) HT-29
# Outline: as §9
# [16] = test system: A-549; assay: Inhibition of cell growth by counting cells, A-549; assay type: cell-based, human; details: Homo sapiens, A549, 72 h; three days of incubation; read-out: IC50 (molar) A-549
# Outline: as §9
# [17] = test system: DU-145; assay: Inhibition of cell growth by counting cells, DU-145; assay type: cell-based, human; details: Homo sapiens, DU-145, 72 h; three days of incubation; read-out: IC50 (molar) DU-145
# Outline: as §9
compound,measurement,setting,value
COc1cc2c(cc1O)CCN[C@]21CS[C@@H]2c3c(OC(C)=O)c(C)c4c(c3[C@H](COC1=O)N1C2[C@H]2c3c(cc(C)c(OC)c3OC(C)C)C[C@@H]([C@@H]1O)N2C)OCO4 (some centres unmarked) [Compound 102],GI50,"[1]; Homo sapiens, LNCaP, 48 h, read-out: LNCAP GI50, LNCAP",17.5 nM
same,CC50,"[1]; Homo sapiens, LNCaP, 48 h, read-out: LNCAP LC50, LNCAP",95.4 nM
same,LNCAP TGI,[1]; LNCAP,4.09E-08
same,GI50,"[2]; Homo sapiens, 48 h, LOVO-DOX, read-out: LOVO-DOX GI50",417 nM
same,CC50,"[2]; Homo sapiens, 48 h, read-out: LOVO-DOX LC50, LOVO-DOX",12400 nM
same,LOVO-DOX TGI,[2]; LOVO-DOX,1.02E-06
same,GI50,"[3]; Homo sapiens, SK-OV-3, 48 h, SK-OV3, read-out: SK-OV3 GI50",41.3 nM
same,LC50,"[3]; Homo sapiens, SK-OV-3, 48 h, read-out: SK-OV3 LC50, SK-OV3",124 nM
same,SK-OV3 TGI,[3]; SK-OV3,1.10E-07
same,GI50,"[4]; Homo sapiens, LoVo, 48 h, LOVO, read-out: LOVO GI50",69.8 nM
same,LC50 (concentration for 50% cell killing),"[4]; Homo sapiens, LoVo, 48 h, read-out: LOVO LC50, LOVO",12400 nM
same,LOVO TGI,[4]; LOVO,4.58E-07
same,A-549 TGI,[5]; A-549,4.24E-07
same,GI50,"[5]; Homo sapiens, A549, 48 h, A-549, read-out: A-549 GI50",152 nM
same,LC50 (concentration for 50% cell killing),"[5]; Homo sapiens, A549, 48 h, read-out: A-549 LC50, A-549",1190 nM
same,GI50,"[6]; Homo sapiens, IGROV-1, 48 h, IGROV, read-out: IGROV GI50",35.3 nM
same,CC50,"[6]; Homo sapiens, IGROV-1, 48 h, read-out: IGROV LC50, IGROV",134 nM
same,IGROV TGI,[6]; IGROV,7.63E-08
same,HT-29 TGI,[7]; HT-29,2.19E-06
same,GI50,"[7]; Homo sapiens, HT-29, 48 h, HT-29, read-out: HT-29 GI50",87 nM
same,LC50 (concentration for 50% cell killing),"[7]; Homo sapiens, HT-29, 48 h, read-out: HT-29 LC50, HT-29",12400 nM
same,GI50,"[8]; Homo sapiens, K562, 48 h, K-562, read-out: K-562 GI50",10.2 nM
same,LC50 (50% cell killing),"[8]; Homo sapiens, K562, 48 h, read-out: K-562 LC50, K-562",126 nM
same,K-562 TGI,[8]; K-562,4.35E-08
same,GI50,"[9]; Homo sapiens, PANC-1, 48 h, PANC-1, read-out: PANC-1 GI50",55.4 nM
same,LC50 (concentration for 50% net cell kill),"[9]; Homo sapiens, PANC-1, 48 h, read-out: PANC-1 LC50, PANC-1",12400 nM
same,PANC-1 TGI,[9]; PANC-1,1.39E-07
same,GI50,"[10]; Homo sapiens, SK-MEL-28, 48 h, MEL-28, read-out: MEL-28 GI50",37.9 nM
same,CC50,"[10]; Homo sapiens, SK-MEL-28, 48 h, read-out: MEL-28 LC50, MEL-28",128 nM
same,MEL-28 TGI,[10]; MEL-28,6.89E-08
same,DU-145 TGI,[11]; DU-145,7.84E-08
same,GI50,"[11]; Homo sapiens, DU-145, 48 h, DU-145, read-out: DU-145 GI50",39.8 nM
same,CC50,"[11]; Homo sapiens, DU-145, 48 h, read-out: DU-145 LC50, DU-145",124 nM
same,GI50,"[12]; Homo sapiens, 48 h, IGROV-ET, read-out: IGROV-ET GI50",101 nM
same,CC50,"[12]; Homo sapiens, 48 h, read-out: IGROV-ET LC50, IGROV-ET",7810 nM
same,IGROV-ET TGI,[12]; IGROV-ET,1.53E-06
CCCCCCCCCCCCCCCC(=O)Oc1cc2c(cc1OC)[C@@]1(CS[C@@H]3c4c(OC(C)=O)c(C)c5c(c4[C@H](COC1=O)N1C3[C@H]3c4c(cc(C)c(OC)c4O)C[C@@H]([C@@H]1C#N)N3C)OCO5)NCC2 (some centres unmarked) [Compound 16],IC50,[13],9.91 nM
same,IC50,[14],9.91 nM
same,IC50,[15],9.91 nM
same,IC50,[16],9.91 nM
same,IC50,[17],9.91 nM
